Results taken from US9505768B2, “Compositions and methods for modulating TLR4” (The Regents of the University of California, priority 2012, dated 2016).

Experiments:
Format in all cases: cell-based
mouse TLR4 = target: T1, mouse TLR4 (Mus musculus, UniProt Q9JHF9+Q9QUK6); test: Murine TLR4 HEK Blue NFκB/SEAP reporter assay; conditions: mTLR4 HEK transfectoma, 312 nM to 10 μM; Cmpd 1 set at 100
T1 construct: host or cells: HEK293 (HEK Blue) cells with NFκB/SEAP reporter
T1 sequence (Q9QUK6 26-835): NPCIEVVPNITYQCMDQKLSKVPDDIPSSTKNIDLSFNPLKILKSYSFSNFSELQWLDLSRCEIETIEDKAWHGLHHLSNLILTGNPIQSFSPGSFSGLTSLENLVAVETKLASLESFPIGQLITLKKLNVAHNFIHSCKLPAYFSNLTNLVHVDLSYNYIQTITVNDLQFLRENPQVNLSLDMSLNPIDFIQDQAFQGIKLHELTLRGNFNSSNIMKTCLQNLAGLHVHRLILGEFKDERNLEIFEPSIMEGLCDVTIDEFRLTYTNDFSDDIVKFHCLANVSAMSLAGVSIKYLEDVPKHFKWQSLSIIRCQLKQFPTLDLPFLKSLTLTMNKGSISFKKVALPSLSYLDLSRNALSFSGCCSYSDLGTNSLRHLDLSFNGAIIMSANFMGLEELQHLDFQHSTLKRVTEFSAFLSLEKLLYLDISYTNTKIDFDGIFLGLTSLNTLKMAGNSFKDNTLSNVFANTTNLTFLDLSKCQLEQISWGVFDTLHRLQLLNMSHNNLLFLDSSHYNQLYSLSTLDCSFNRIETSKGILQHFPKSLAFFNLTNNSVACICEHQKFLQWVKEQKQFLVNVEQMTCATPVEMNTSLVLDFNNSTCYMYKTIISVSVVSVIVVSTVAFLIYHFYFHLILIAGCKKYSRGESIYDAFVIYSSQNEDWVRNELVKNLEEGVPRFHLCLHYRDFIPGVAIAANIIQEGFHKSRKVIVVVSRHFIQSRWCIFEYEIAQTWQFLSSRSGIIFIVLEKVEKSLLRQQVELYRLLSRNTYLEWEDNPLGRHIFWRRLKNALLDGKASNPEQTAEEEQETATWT
T1 sequence (Q9JHF9 19-160): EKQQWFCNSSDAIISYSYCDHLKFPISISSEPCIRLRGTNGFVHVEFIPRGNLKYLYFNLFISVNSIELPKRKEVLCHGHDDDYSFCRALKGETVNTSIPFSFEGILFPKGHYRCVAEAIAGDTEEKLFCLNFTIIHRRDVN
Procedure: (§1) The above assays were utilized to compare the derivatives of the lead pyrimidoindole for their ability to activate mouse and human TLR4. […] Each cytokine induction curve was first converted to a percent activity curve, and then the AUC of the percent activity curve was calculated. The process of converting to a percent activity curve allowed subtracting background and adjusting for plate-to-plate variation.
(§2) The culture supernatants were harvested after a 20-24 h incubation period. SEAP activity in the supernatants was determined by a colorimetric assay, using either the SEAPorter Assay Kit (Imgenex), with absorbance read at 405 nm, or QuantiBlue (Invivogen), with absorbance read at 630 nm.

human TLR4 = target: T2, human TLR4 (Homo sapiens, UniProt O00206+Q9Y6Y9); test: Human TLR4 HEK Blue NFκB/SEAP reporter assay; conditions: hTLR4 HEK293 transfectoma; all compounds tested at 10 μM; Cmpd 1 set at 100
T2 construct: host or cells: HEK293 (HEK Blue) cells with NFκB/SEAP reporter
T2 sequence (O00206 24-839): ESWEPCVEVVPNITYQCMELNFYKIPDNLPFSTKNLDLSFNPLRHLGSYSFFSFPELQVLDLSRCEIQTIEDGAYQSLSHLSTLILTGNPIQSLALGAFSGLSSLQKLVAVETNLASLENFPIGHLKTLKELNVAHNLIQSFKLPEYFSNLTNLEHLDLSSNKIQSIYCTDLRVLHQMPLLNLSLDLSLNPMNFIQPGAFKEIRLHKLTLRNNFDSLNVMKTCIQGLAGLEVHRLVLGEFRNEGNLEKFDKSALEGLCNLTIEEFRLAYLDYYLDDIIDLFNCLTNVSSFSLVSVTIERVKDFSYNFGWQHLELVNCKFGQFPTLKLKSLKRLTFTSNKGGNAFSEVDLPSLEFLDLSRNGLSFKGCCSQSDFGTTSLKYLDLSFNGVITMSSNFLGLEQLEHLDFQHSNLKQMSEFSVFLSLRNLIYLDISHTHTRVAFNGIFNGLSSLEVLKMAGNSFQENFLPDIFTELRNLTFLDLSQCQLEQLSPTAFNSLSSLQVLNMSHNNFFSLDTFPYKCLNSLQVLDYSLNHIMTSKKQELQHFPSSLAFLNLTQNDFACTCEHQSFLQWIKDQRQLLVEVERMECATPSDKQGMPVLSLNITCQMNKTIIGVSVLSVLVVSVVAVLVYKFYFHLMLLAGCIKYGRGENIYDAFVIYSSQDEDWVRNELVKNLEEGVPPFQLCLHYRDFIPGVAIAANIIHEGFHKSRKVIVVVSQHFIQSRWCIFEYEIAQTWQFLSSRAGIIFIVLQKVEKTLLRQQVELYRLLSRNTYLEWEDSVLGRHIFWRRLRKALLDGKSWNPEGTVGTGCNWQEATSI
T2 sequence (Q9Y6Y9 19-160): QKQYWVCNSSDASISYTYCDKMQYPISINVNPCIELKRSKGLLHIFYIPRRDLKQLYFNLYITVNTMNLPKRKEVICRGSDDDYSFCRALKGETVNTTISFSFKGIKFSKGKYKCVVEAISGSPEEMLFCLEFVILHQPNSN
Procedure: as §1, §2

[1] = system: mouse bone marrow derived dendritic cells (mBMDC); test: IL-6 induction in mouse bone marrow derived dendritic cells (ELISA); conditions: relative to Cmpd 1 / within series
Procedure: as §1
BMDC were prepared from C57BL/6 mice as described. See e.g., Wu, C. […] BMDC (10^5 cells per well) were plated in 96-well plates in 200 μL of complete RPMI1640 supplemented with 10% fetal calf serum (FCS; Sigma Aldrich), 100 U/mL penicillin, and 100 μg/mL streptomycin (Invitrogen). […] After 18 h incubation, the cell culture supernatants were collected. LPS (purified LPS, Invivogen, San Diego, Calif.) or MPLA (1 μg/mL synthetic MPLA, Invivogen, San Diego, Calif.) were used as positive controls. […] The AUC was calculated from BMDC dose-response curves using Prism 5 (GraphPad, San Diego). Each cytokine induction curve was first converted to a percent activity curve, and then the AUC of the percent activity curve was calculated. The process of converting to a percent activity curve allowed subtracting background and adjusting for plate-to-plate variation.

| SMILES | mouse TLR4, area under curve (AUC) values normalized to Cmpd 1 (mouse TLR4) | human TLR4, values normalized to Cmpd 1 (human TLR4) | IL-6 activity in mBMDC (in words) [1] |
| --- | --- | --- | --- |
| O=C(CSc1nc2c([nH]c3ccccc32)c(=O)n1-c1ccccc1)NC1CCCC1 [Compound 11, N-cyclopentyl-2-((4-oxo-3-phenyl-4,5-dihydro-3H-pyrimido[5,4-b]indol-2-yl)thio)acetamide] | 28 | 23 |  |
| O=C(CSc1nc2c([nH]c3ccccc32)c(=O)n1-c1ccccc1)Nc1ccc2ccccc2c1 [Compound 18, N-(naphthalen-2-yl)-2-((4-oxo-3-phenyl-4,5-dihydro-3H-pyrimido[5,4-b]indol-2-yl)thio)acetamide] | 2 | 21 |  |
| O=C(CSc1nc2c([nH]c3ccccc32)c(=O)n1-c1ccccc1)NCc1ccco1 [Compound 19, N-(furan-2-ylmethyl)-2-((4-oxo-3-phenyl-4,5-dihydro-3H-pyrimido[5,4-b]indol-2-yl)thio)acetamide] | 5 | 27 |  |
| O=C(CSc1nc2c([nH]c3ccccc32)c(=O)n1-c1ccccc1)Nc1ccc2cn[nH]c2c1 [Compound 20, N-(1H-indazol-6-yl)-2-((4-oxo-3-phenyl-4,5-dihydro-3H-pyrimido[5,4-b]indol-2-yl)thio)acetamide] | <1 | <1 |  |
| O=C(CSc1nc2c([nH]c3ccccc32)c(=O)n1-c1ccccc1)Nc1nccs1 [Compound 21, 2-((4-oxo-3-phenyl-4,5-dihydro-3H-pyrimido[5,4-b]indol-2-yl)thio)-N-(thiazol-2-yl)acetamide] | 2 | 12 |  |
| CCNC(=O)CSc1nc2c([nH]c3ccccc32)c(=O)n1-c1ccccc1 [Compound 22, N-ethyl-2-((4-oxo-3-phenyl-4,5-dihydro-3H-pyrimido[5,4-b]indol-2-yl)thio)acetamide] | <1 | 8 |  |
| CCCCNC(=O)CSc1nc2c([nH]c3ccccc32)c(=O)n1-c1ccccc1 [Compound 23, N-butyl-2-((4-oxo-3-phenyl-4,5-dihydro-3H-pyrimido[5,4-b]indol-2-yl)thio)acetamide] | 31 | 32 | somewhat less active |
| CCCCCNC(=O)CSc1nc2c([nH]c3ccccc32)c(=O)n1-c1ccccc1 [Compound 24, 2-((4-oxo-3-phenyl-4,5-dihydro-3H-pyrimido[5,4-b]indol-2-yl)thio)-N-pentylacetamide] | 42 | 23 |  |
| CCCCCCNC(=O)CSc1nc2c([nH]c3ccccc32)c(=O)n1-c1ccccc1 [Compound 25, N-hexyl-2-((4-oxo-3-phenyl-4,5-dihydro-3H-pyrimido[5,4-b]indol-2-yl)thio)acetamide] | 4 | 8 |  |
| CC(C)CNC(=O)CSc1nc2c([nH]c3ccccc32)c(=O)n1-c1ccccc1 [Compound 26, N-isobutyl-2-((4-oxo-3-phenyl-4,5-dihydro-3H-pyrimido[5,4-b]indol-2-yl)thio)acetamide] | 24 | 21 | somewhat less active |
| CC(C)CCNC(=O)CSc1nc2c([nH]c3ccccc32)c(=O)n1-c1ccccc1 [Compound 27, N-isopentyl-2-((4-oxo-3-phenyl-4,5-dihydro-3H-pyrimido[5,4-b]indol-2-yl)thio)acetamide] | 56 | 38 | somewhat less active |
| CCC(CC)NC(=O)CSc1nc2c([nH]c3ccccc32)c(=O)n1-c1ccccc1 [Compound 31, 2-((4-oxo-3-phenyl-4,5-dihydro-3H-pyrimido[5,4-b]indol-2-yl)thio)-N-(pentan-3-yl)acetamide] | 8 | 11 |  |
| CC(C)(C)NC(=O)CSc1nc2c([nH]c3ccccc32)c(=O)n1-c1ccccc1 [Compound 32, N-(tert-butyl)-2-((4-oxo-3-phenyl-4,5-dihydro-3H-pyrimido[5,4-b]indol-2-yl)thio)acetamide] | <1 | 6 |  |
| O=C(CSc1nc2c([nH]c3ccccc32)c(=O)n1-c1ccccc1)NC1CCNCC1 [Compound 34, 2-((4-oxo-3-phenyl-4,5-dihydro-3H-pyrimido[5,4-b]indol-2-yl)thio)-N-(piperidin-4-yl)acetamide] | <1 | <1 |  |
| CCCCCCCC/C=C\CCCCCCCC(=O)OCC(COP(=O)(O)OCCNC(=O)CSc1nc2c([nH]c3ccccc32)c(=O)n1-c1ccccc1)OC(=O)CCCCCCC/C=C\CCCCCCCC (stereo not drawn) [Compound 35, (Z)-3-((hydroxy(2-(2-((4-oxo-3-phenyl-4,5-dihydro-3H-pyrimido[5,4-b]indol-2-yl)thio)acetamido)ethoxy)phosphoryl)oxy)propane-1,2-diyl dioleate] | <1 | <1 |  |
| O=C(CSc1nc2c([nH]c3ccccc32)c(=O)n1C1CCCCC1)NC1CCCCC1 [Compound 36, N-cyclohexyl-2-((3-cyclohexyl-4-oxo-4,5-dihydro-3H-pyrimido[5,4-b]indol-2-yl)thio)acetamide] | 56 | 40 | some loss of activity |
| CCCCCn1c2ccccc2c2nc(SCC(=O)NC3CCCCC3)n(-c3ccccc3)c(=O)c21 [Compound 49, N-cyclohexyl-2-((4-oxo-5-pentyl-3-phenyl-4,5-dihydro-3H-pyrimido[5,4-b]indol-2-yl)thio)acetamide] | 6 | 11 |  |
| CCCCCCCCCCCCn1c2ccccc2c2nc(SCC(=O)NC3CCCCC3)n(-c3ccccc3)c(=O)c21 [Compound 50, N-cyclohexyl-2-((5-dodecyl-4-oxo-3-phenyl-4,5-dihydro-3H-pyrimido[5,4-b]indol-2-yl)thio)acetamide] | 4 | 10 |  |
| NC(=O)Cn1c2ccccc2c2nc(SCC(=O)NC3CCCCC3)n(-c3ccccc3)c(=O)c21 [Compound 52, 2-((5-(2-amino-2-oxoethyl)-4-oxo-3-phenyl-4,5-dihydro-3H-pyrimido[5,4-b]indol-2-yl)thio)-N-cyclohexylacetamide] | 8 | 11 |  |
